According to US7009036B2, “Peptide inhibiting platelet derived growth factor (PDGF-BB) and fibroblast growth factor (bFGF) activity” (Provincia Italiana Della Congregazione Dei Figli …, priority 2001, dated 2006):
Ends that are not written are not given here.

Columns and labels:
[1] = tested on: primary rat aorta smooth muscle cells (RASMC); assay: Proliferation assay, RASMC; type: cell-based; settings: 0.1% BSA alone, no growth factor; any time
Protocol: (§1) This test was carried out on Primary rat aorta smooth muscle cells (RASMC) obtained from six-month old male Wistar rats following a well known technique (Sterpetti, A. V. et al., 1992, J. Vasc. Surg., 6, 16–20); primary bovine aortic endothelial cells (BAEC) were obtained according to previously described protocols (D'Arcangelo, D. et al., 2000, Circ.Res., 86, 312–318).
(§2) Proliferation assay was carried out on primary rat aorta SMC and on primary bovine aortic endothelial cells (BAEC). Cells were plated in six-well plates (1×10^5 cells/plate) and grown for 24 hours in Dulbecco Modified eagle's medium (DMEM) supplemented with 10% FBS, at 37° C. in 5% CO2. Then, the medium was replaced with DMEM medium containing 0.1% BSA for 24 hours. Subsequently, the medium was replaced with fresh medium containing either 0.1% BSA alone or 0.1% BSA with growth factors at 10 ng/ml final concentration or fetal calf serum (FCS) al 10%, in the absence or in the presence of PEP1 or control peptide. Each assay was carried out for mounting period of time up to a maximum time of three days and the cell were harvested and counted with hemacytometer.

[2] = tested on: primary bovine aortic endothelial cells (BAEC); assay: Proliferation assay, BAEC; type: cell-based; settings: 0.1% BSA alone, no growth factor; any time
Protocol: as §1, §2

DPHIKLQLQAE [PEP1, Asp-Pro-His-Ile-Lys-Leu-Gln-Leu-Gln-Ala-Glu]
effect on spontaneous proliferation (toxicity per se), RASMC [1]: not significantly affected
effect on spontaneous proliferation (toxicity per se), BAEC [2]: not significantly affected
